Numbered stars: 1 amine (or outer) side, 2 acyl side, 3 side chain; on linkers, the order of the positions; unused ones are H or OH. Bridge positions count the residues as written; N and C are the ends. Square brackets hold non-standard residues; d marks the D form. Peptide text beside a SMILES is read from it. * marks the point of attachment. DOTA = O=C(O)CN1CCN(CC(=O)O)CCN(CC(=O)*)CCN(CC(=O)O)CC1; Phe(4-Cl) = N[C@@H](Cc1ccc(Cl)cc1)C(=O)O; Dap(CONH2) = NC(=O)NC[C@H](N)C(=O)O; Ethylenediamine = C(CN[*:2])N[*:1]; Hyp = O=C(O)[C@@H]1C[C@@H](O)CN1; X5 = O=C(c1ccc(CN[*:1])nc1)[*:2]; Tle = CC(C)(C)[C@H](N)C(=O)O; Deg = CCC(N)(CC)C(=O)O; Aib = CC(C)(N)C(=O)O
Assays:
[1] = target: T1, PSMA-expressing C4-2 cells (Homo sapiens, UniProt Q04609); assay: FACS binding assay (competition with 50 nM PSM-0183); conditions: FACS binding, C4-2 cells, competition with 50 nM PSM-0183; category; read-out: pIC50 [C4-2] CAT (converted)
T1 construct: PSMA-expressing C4-2 cells (ATCC, Cat. No. CRL-3314) were cultured in RPMI-1640; host or cells: C4-2 cells
T1 sequence (Q04609 whole entry): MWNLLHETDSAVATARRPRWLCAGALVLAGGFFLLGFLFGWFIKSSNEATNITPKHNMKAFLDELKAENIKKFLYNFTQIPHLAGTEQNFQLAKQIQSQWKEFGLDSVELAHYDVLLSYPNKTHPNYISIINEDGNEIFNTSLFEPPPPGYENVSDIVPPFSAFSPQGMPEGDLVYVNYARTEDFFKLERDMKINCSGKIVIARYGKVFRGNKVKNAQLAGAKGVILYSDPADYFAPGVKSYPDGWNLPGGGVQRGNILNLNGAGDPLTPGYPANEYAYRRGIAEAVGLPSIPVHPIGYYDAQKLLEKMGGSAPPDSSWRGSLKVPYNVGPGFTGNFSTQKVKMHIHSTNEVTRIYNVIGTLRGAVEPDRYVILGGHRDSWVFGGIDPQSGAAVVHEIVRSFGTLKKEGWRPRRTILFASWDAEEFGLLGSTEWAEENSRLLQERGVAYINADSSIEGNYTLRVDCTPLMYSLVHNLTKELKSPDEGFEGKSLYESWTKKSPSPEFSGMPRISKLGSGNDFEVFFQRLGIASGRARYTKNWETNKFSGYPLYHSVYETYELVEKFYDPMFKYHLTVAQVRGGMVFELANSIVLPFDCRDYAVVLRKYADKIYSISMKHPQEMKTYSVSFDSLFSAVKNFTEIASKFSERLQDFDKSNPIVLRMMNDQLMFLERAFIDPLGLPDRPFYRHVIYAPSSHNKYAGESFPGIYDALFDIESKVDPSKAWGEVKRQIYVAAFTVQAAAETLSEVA
Experimental: In order to determine binding of compounds according to the present invention to PSMA-expressing cells, a FACS binding assay was established.
PSMA-expressing C4-2 cells (ATCC, Cat. No. CRL-3314) were cultured in RPMI-1640 (Pan Biotech, Cat. No. P04-18050) including 10% fetal calf serum (Biochrom) and 100 U/ml penicillin and 100 μg/mL streptomycin (Sigma, Cat. No. P0781). Cells were detached with Accutase (Biolegend, Cat. No. BLD-423201) and washed in FACS buffer (PBS (Sigma, Cat. No. D8537) including 1% fetal calf serum). Cells were diluted in FACS buffer to a final concentration of 500,000 cells per mL. 200 μL of the cell suspension were transferred to a u-shaped non-binding 96-well plate (Greiner Bio-One, Cat. No. 650901) and cells were washed in ice-cold FACS buffer.
For IC50 determination, C4-2 cells were incubated with 50 nM PSM-0183 (Ac-Thr-Aib-Phe[Cys-Lys-Arg-Aib-Asn-Cys]-Tle-Thr-Asp-Ttds-Ttds-AF488N3K-NH2) in the presence of increasing concentrations of test compounds at 4° C. for 1 hour. After two wash steps with ice-cold FACS buffer, cells were analyzed in an Attune NxT flow cytometer. Median fluorescence intensities (MFI) of the FITC/AF488-channel were calculated by Attune NxT software. MFI values were plotted against peptide concentration and four parameter logistic (4PL) curve fitting and IC50/pIC50 calculations were performed using ActivityBase software (IDBS).

[2] = target: T2, Fc-fusion protein of human PSMA (hPSMA-Fc) (Homo sapiens, UniProt Q04609); assay: Surface plasmon resonance assay (Biacore T200, single cycle kinetic); assay type: binding; conditions: SPR, hPSMA-Fc, single cycle kinetic, 25° C.; category; read-out: pKD CAT (converted)
T2 construct: purchased Acro Biosystems PSA-H5264
T2 sequence (Q04609 44-750 limits assumed): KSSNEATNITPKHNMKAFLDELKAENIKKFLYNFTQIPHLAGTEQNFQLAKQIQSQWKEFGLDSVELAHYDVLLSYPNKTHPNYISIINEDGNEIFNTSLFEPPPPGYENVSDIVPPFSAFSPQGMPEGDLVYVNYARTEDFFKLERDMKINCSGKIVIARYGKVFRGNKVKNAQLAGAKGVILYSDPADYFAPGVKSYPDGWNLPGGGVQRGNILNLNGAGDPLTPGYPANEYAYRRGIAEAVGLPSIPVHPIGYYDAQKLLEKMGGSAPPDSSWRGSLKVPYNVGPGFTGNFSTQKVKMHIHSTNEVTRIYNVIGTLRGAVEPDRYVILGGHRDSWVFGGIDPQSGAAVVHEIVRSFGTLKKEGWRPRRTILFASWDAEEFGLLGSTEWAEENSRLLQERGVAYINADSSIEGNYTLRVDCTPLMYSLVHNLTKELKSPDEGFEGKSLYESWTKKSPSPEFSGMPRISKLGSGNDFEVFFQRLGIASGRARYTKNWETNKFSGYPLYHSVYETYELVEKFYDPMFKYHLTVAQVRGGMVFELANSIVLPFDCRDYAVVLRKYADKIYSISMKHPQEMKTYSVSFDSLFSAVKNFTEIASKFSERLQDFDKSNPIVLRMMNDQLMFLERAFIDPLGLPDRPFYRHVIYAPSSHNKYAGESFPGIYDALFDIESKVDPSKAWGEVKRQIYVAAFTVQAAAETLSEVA
Experimental: Surface plasmon resonance (SPR) studies were performed using a Biacore™ T200 SPR system. Briefly, polarized light is directed towards a gold-labeled sensor surface, and minimum intensity reflected light is detected. The angle of reflected light changes as molecules bind and dissociate.
Fc-fusion protein of human PSMA (hPSMA-Fc, Acro Biosystems, Cat #PSA-H5264) was captured on a Fc-capture chip (Biacore™ CM5 sensor chip coated with ˜300 RU of an Fc-binding peptide). hPSMA-Fc was diluted in Running Buffer (HBST, 0.1% DMSO) to a final concentration of 100 nM and then flushed over the Fc-capture chip to immobilized ˜1000 RUs.
Stock solutions of test compounds were prepared by dissolving each compound in DMSO. DMSO stock solution were diluted 1:1000 in Running Buffer without DMSO. Further sequential dilutions were made with Running Buffer containing 0.1% DMSO. SPR binding analyses were performed in Single Cycle Kinetic (SCK) mode at 25° C. Flow cell coated with the Fc-binding peptide only served as reference flowcell. After each SCK run, hPSMA-Fc was removed with 10 mM glycine buffer, pH 1.5.
In between every three SCK measurements, a blank run with Running Buffer instead of test compound was included to correct for baseline drifts (double blanking method).
Table 5 describes the protocol steps for Fc-fusion target capturing and assessment of the binding kinetics.
For each test compound, SPR raw data in the form of resonance units (RU) were plotted as sensorgrams using the Biacore™ T200 control software. The signal from the blank sensorgram was subtracted from that of the test compound sensorgram (blank corrected). The blank corrected sensorgram was corrected for baseline drift by subtracting the sensorgram of a SCK run without the test compound (running buffer only). The dissociation constant (KD) was calculated from Blank-normalized SPR data using the 1:1 Langmuir binding model from the Biacore™ Insight Evaluation software. The pKD value (negative decadic logarithm of dissociation constant) was calculated using Microsoft Excel.

Row | IC50 [1] | Kd [2] | SMILES
1 | < 200 nM | 12.6 to 126 nM | CC(=O)N[C@H](C(=O)NC(C)(C)C(=O)N[C@@H](Cc1ccccc1)C(=O)N[C@H]1CSSC[C@@H](C(=O)N[C@H](C(=O)N[C@H](C(=O)N[C@@H](CC(=O)O)C(N)=O)[C@@H](C)O)C(C)(C)C)NC(=O)[C@H](CC(N)=O)NC(=O)[C@H](C)NC(=O)[C@H](CNC(N)=O)NC(=O)[C@H](CCCCN)NC1=O)[C@@H](C)O [PSM-0180, Ac-Thr-Aib-Phe-[Cys-Lys-Gln-Ala-Asn-Cys]-Tle-Thr-Asp-NH2] (Ac-T[Aib]FCK[Dap(CONH2)]ANC[Tle]TD-NH2; disulfide 4-9)
2 | < 200 nM | < 12.6 nM | CC(=O)N[C@H](C(=O)NC(C)(C)C(=O)N[C@@H](Cc1ccccc1)C(=O)N[C@H]1CSSC[C@@H](C(=O)N[C@H](C(=O)N[C@H](C(=O)N[C@@H](CC(=O)O)C(N)=O)[C@@H](C)O)C(C)(C)C)NC(=O)[C@H](CC(N)=O)NC(=O)[C@@H]2C[C@@H](O)CN2C(=O)[C@H](CCCNC(=N)N)NC(=O)[C@H](CCCCN)NC1=O)[C@@H](C)O [PSM-0181, Ac-Thr-Aib-Phe-[Cys-Lys-Arg-Hyp-Asn-Cys]-Tle-Thr-Asp-NH2] (Ac-T[Aib]FCKR[Hyp]NC[Tle]TD-NH2; disulfide 4-9)
3 | 1260 to 3160 nM | > 501 nM | CCCC[C@H](NC(=O)[C@@H]1CSSC[C@H](NC(=O)[C@H](Cc2ccccc2)NC(=O)[C@H](C)NC(=O)[C@@H](NC(C)=O)[C@@H](C)O)C(=O)N[C@@H](CCCCN)C(=O)N[C@@H](CCCNC(=N)N)C(=O)N[C@@H](C)C(=O)N[C@@H](CC(N)=O)C(=O)N1)C(=O)N[C@@H](C(=O)N[C@H](CC(=O)O)C(N)=O)[C@H](C)O [PSM-0182, Ac-Thr-Ala-Phe-[Cys-Lys-Arg-Ala-Asn-Cys]-Nle-thr-Asp-NH2]
4 | < 200 nM | 12.6 to 126 nM | C[C@@H](O)[C@H](NC(=O)CN1CCN(CC(=O)O)CCN(CC(=O)O)CCN(CC(=O)O)CC1)C(=O)NC(C)(C)C(=O)N[C@@H](Cc1ccccc1)C(=O)N[C@H]1CSSC[C@@H](C(=O)N[C@H](C(N)=O)C(C)(C)C)NC(=O)[C@H](CC(N)=O)NC(=O)C(C)(C)NC(=O)[C@H](CCCNC(=N)N)NC(=O)[C@H](CCCCN)NC1=O [PSM-0184, DOTA-Thr-Aib-Phe-[Cys-Lys-Arg-Aib-Asn-Cys]-Tle-NH2] ({DOTA}-T[Aib]FCKR[Aib]NC[Tle]-NH2; disulfide 4-9)
5 | < 200 nM | < 12.6 nM | CC(=O)NCc1ccc(C(=O)NC(C)(C)C(=O)N[C@@H](Cc2ccc(Cl)cc2)C(=O)N[C@H]2CSSC[C@@H](C(=O)N[C@H](C(=O)NCCNC(=O)CN3CCN(CC(=O)O)CCN(CC(=O)O)CCN(CC(=O)O)CC3)C(C)(C)C)NC(=O)[C@H](CC(N)=O)NC(=O)C(C)(C)NC(=O)[C@H](CCCNC(=N)N)NC(=O)[C@H](CCCCN)NC2=O)cn1 [PSM-0186, Ac-Pamp-Aib-Pcf-[Cys-Lys-Arg-Aib-Asn-Cys]-Tle-en-DOTA] (Ac-[X5][Aib][Phe(4-Cl)]CKR[Aib]NC[Tle]-{Ethylenediamine-DOTA}; disulfide 4-9)
6 | < 200 nM | < 12.6 nM | CCC(CC)(NC(=O)[C@@H](NC(C)=O)[C@@H](C)O)C(=O)N[C@@H](Cc1ccccc1)C(=O)N[C@H]1CSSC[C@@H](C(=O)N[C@H](C(=O)N[C@H](C(N)=O)[C@@H](C)O)C(C)(C)C)NC(=O)[C@H](CC(N)=O)NC(=O)C(C)(C)NC(=O)[C@H](CCCNC(=N)N)NC(=O)[C@H](CCCCN)NC1=O [PSM-0187, Ac-Thr-Deg-Phe-[Cys-Lys-Arg-Aib-Asn-Cys]-Tle-Thr-NH2] (Ac-T[Deg]FCKR[Aib]NC[Tle]T-NH2; disulfide 4-9)

Source: patent US20260083865A1, “PROSTATE SPECIFIC MEMBRANE ANTIGEN (PSMA) LIGANDS AND USE THEREOF” (priority 2022, published 2026)
